Assay results taken from publication PMC7058083, “Structural basis of ligand binding modes at the human formyl peptide receptor 2” (Nature Communications, 2020).
Numbering of substitutions follows the chain as printed.

What was measured:
Experiment in all cases: Saturation binding of WK(FITC)YMVm, flow cytometry on HEK293F cells
[1] = target: T1, wild-type (WT) and mutant FPR2 (Homo sapiens, UniProt P25090, L268A); conditions: FPR2 L268A
T1 construct: expressed in transfected cells; host or cells: HEK293F
T1 sequence (P25090 1-351 L268A): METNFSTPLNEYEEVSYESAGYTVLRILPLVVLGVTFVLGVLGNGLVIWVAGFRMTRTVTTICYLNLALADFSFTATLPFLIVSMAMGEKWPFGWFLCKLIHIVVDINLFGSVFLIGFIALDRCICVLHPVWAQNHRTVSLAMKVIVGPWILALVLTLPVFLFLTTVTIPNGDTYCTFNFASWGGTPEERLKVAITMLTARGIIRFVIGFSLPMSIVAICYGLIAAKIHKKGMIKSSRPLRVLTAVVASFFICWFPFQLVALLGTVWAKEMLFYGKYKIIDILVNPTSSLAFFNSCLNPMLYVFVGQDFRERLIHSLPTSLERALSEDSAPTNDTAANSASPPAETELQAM
Protocol: (§1) Flag-tagged wild-type and mutant FPR2s were cloned into the pTT5 vector and expressed in HEK293F cells. The cells were harvested, and washed with Hanks’ Balanced Salt Solution (HBSS) buffer supplemented with 0.5% bovine serum albumin and 20 mM HEPES, pH 7.4. The cells were then resuspended in the same buffer to the final concentration of 1 × 10^6 cells per ml. The cell-surface expression was measured as mentioned above. […] Mean fluorescent intensity of each well was then read by a FCM (flow cytometry) reader (Millipore). […] For competitive binding of fMLFK, cells were plated in 96-well plates (100,000 cells per well), and incubated with WK(FITC)YMVm at 4 °C for 1 h. The following concentrations of WK(FITC)YMVm were used: 10 nM (wild type, L81^2.60F, E89G, and V105^3.32A), 30 nM (D281^7.32G), 40 nM (H102^3.29F, V160^4.60A, L268^ECL3A, N285^7.36A, and F292^7.43A), and 100 nM (L164^4.64A and T177A). Then increasing concentrations of fMLFK (100 nM–1 mM) were added, and incubated for another 1 h on ice. Mean fluorescent intensity values were measured by flow cytometry. Data were analyzed using Prism 7.0.

[2] = target: T2, wild-type (WT) and mutant FPR2 (Homo sapiens, UniProt P25090, V105A); conditions: FPR2 V105A
T2 construct: expressed in transfected cells; host or cells: HEK293F
T2 sequence (P25090 1-351 V105A): T1 sequence (P25090 1-351 L268A) with V105A, A268L
Protocol: as §1

[3] = target: T3, wild-type (WT) and mutant FPR2 (Homo sapiens, UniProt P25090, R201F); conditions: mutation R201F
T3 construct: expressed in transfected cells; host or cells: HEK293F
Protocol: as §1

[4] = target: T4, wild-type (WT) and mutant FPR2 (Homo sapiens, UniProt P25090, F5A); conditions: FPR2 F5A
T4 construct: expressed in transfected cells; host or cells: HEK293F
Protocol: as §1

[5] = target: T5, wild-type (WT) and mutant FPR2 (Homo sapiens, UniProt P25090, L198A); conditions: FPR2 L198A
T5 construct: expressed in transfected cells; host or cells: HEK293F
Protocol: as §1

[6] = target: T6, wild-type (WT) and mutant FPR2 (Homo sapiens, UniProt P25090, R205A); conditions: mutant R205A
T6 construct: expressed in transfected cells; host or cells: HEK293F
Protocol: as §1

[7] = target: T7, wild-type (WT) and mutant FPR2 (Homo sapiens, UniProt P25090, D281A); conditions: FPR2 D281A
T7 construct: expressed in transfected cells; host or cells: HEK293F
Protocol: as §1

[8] = target: T8, wild-type (WT) and mutant FPR2 (Homo sapiens, UniProt P25090, F292A); conditions: FPR2 F292A
T8 construct: expressed in transfected cells; host or cells: HEK293F
T8 sequence (P25090 1-351 F292A): T1 sequence (P25090 1-351 L268A) with A268L, F292A
Protocol: as §1

[9] = target: T9, wild-type (WT) and mutant FPR2 (Homo sapiens, UniProt P25090, L164A); conditions: FPR2 L164A
T9 construct: expressed in transfected cells; host or cells: HEK293F
T9 sequence (P25090 1-351 L164A): T1 sequence (P25090 1-351 L268A) with L164A, A268L
Protocol: as §1

T5 sequence (P25090 whole entry L198A): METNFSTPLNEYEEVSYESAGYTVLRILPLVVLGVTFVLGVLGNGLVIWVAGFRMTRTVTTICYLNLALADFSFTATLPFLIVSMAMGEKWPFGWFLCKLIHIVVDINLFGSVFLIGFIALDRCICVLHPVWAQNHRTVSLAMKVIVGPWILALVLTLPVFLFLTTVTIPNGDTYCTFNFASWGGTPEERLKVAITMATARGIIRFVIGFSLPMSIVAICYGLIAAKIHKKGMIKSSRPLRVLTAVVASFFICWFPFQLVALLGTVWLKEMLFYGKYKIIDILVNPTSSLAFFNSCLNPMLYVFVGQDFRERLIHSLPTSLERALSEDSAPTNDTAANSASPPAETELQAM
T4 sequence (P25090 whole entry F5A): as the sequence (P25090 whole entry L198A) above, with F5A, A198L counted along it
T7 sequence (P25090 whole entry D281A): as the sequence (P25090 whole entry L198A) above, with A198L, D281A counted along it
T3 sequence (P25090 whole entry R201F): as the sequence (P25090 whole entry L198A) above, with A198L, R201F counted along it
T6 sequence (P25090 whole entry R205A): as the sequence (P25090 whole entry L198A) above, with A198L, R205A counted along it

CSCC[C@H](NC(=O)[C@H](Cc1ccc(O)cc1)NC(=O)[C@H](CCCCNC(=S)Nc1ccc2c(c1)C(=O)OC21c2ccc(O)cc2Oc2cc(O)ccc21)NC(=O)[C@@H](N)Cc1c[nH]c2ccccc12)C(=O)N[C@H](C(=O)N[C@H](CCSC)C(N)=O)C(C)C [WK(FITC)YMVm]
Span (% of WT), saturation binding [1]: 76 ± 7 % of WT | Kd ([1]; mean ± s.e.m., n=3, SEM): 28.0 ± 10.0 nM | Span (% of WT), saturation binding [2]: 68 ± 15 % of WT | Kd ([2]; mean ± s.e.m., n=4, SEM): 25.7 ± 7.5 nM | WK(FITC)YMVm binding [3]: substantially reduced | Span (% of WT), saturation binding [4]: 62 ± 7 % of WT | Kd ([4]; mean ± s.e.m., n=3, SEM): 15.1 ± 7.4 nM | Span (% of WT), saturation binding [5]: 84 ± 14 % of WT | Kd ([5]; mean ± s.e.m., n=3, SEM): 41.5 ± 10.0 nM | WK(FITC)YMVm binding [6]: complete loss | Span (% of WT), saturation binding [7]: 42 ± 8 % of WT | Kd ([7]; mean ± s.e.m., n=3, SEM): 48.6 ± 17.6 nM | Span (% of WT), saturation binding [8]: 54 ± 14 % of WT | Kd ([8]; mean ± s.e.m., n=3, SEM): 42.5 ± 14.7 nM | Span (% of WT), saturation binding [9]: 85 ± 13 % of WT | Kd ([9]; mean ± s.e.m., n=3, SEM): 92.2 ± 25.1 nM
